“Also recorded” adds a separate entry of the source.
System: H2O2-induced senescent mouse embryonic fibroblasts NIH/3T3
Assay: Seahorse xFe96 mitochondria stress detection experiment in H2O2-induced senescent cells
Type: cell-based
Conditions: 24 h incubation after 200 μmol/L H2O2 for 4 h; for mitochondrial basal respiration / mitochondrial oxygen consumption rate (OCR): vs blank and model control; for mitochondrial ATP production capability / mitochondrial maximum respiratory value / mitochondrial respiratory reserve: vs model control, P<0.05
Experimental: In this example, concentrations of the 5′-adenosine monophosphate and the 5′-disodium uridine obtained in Example 1 were 100 μmol/L and 200 μmol/L respectively, and were recorded as AMP 100 group and UMP 200 group, respectively. […] Model control group was a senescence cell model group intervened by hydrogen peroxide. Blank control group was a group free of mixture of 5′-adenosine monophosphate, 5′-disodium uridine and 5′-monophosphate nucleotide and without hydrogen peroxide intervention.
The cells used in the example were mouse embryonic fibroblasts NIH/3T3, which were purchased from Cell Bank of Chinese Academy of Sciences.
The cells were cultured in a DMEM high-sugar medium containing 1% penicillin/streptomycin and 10% fetal bovine serum in an incubator with 5% of CO2 at 37° C. under saturated humidity conditions. The establishment of the senescence cell model was as follows: After the cells grew to the wall of a culture vessel, different concentrations of hydrogen peroxide were used for intervention, where the concentrations of hydrogen peroxide were 50 μmol/L, 100 μmol/L, 200 μmol/L, 400 μmol/L, and 800 μmol/L. The medium containing hydrogen peroxide was removed after incubation for 4 hours, and a normal complete medium (DMEM high-sugar medium containing 1% penicillin/streptomycin and 10% fetal bovine serum) was added for incubation for 24 hours, then the cell activity of the cultured cells was detected by using a CCK-8 cell active kit, the expression of β-galactosidase was detected, and the expressions of the senescent marker p16INK4A and p21Waf1/Cipl were detected by western blot method.
In this example, the oxygen consumption rate (OCR), basal respiration, maximum respiratory value, ATP production capability and respiratory reserve of mitochondria were determined by using the Seahorse xFe96 (Agilent) mitochondria stress detection experiment. 20000 NIH/3T3 cells were inoculated in each well of a 96-well cell culture plate (Nunc, 165306) except the background wells at four corners. After overnight incubation and the cells grew to the wall of the culture plate, the cells were intervened by 200 μmol/L hydrogen peroxide for 4 hours, then the medium containing hydrogen peroxide was removed, and a normal complete medium containing nucleotides with different concentrations (DMEM high-sugar medium containing 1% of penicillin/streptomycin and 10% of fetal bovine serum, and the concentrations of 5′-adenosine monophosphate and 5′-disodium uridine were respectively 100 μmol/L and 200 μmol/L, and the concentration of the nucleotide mixture was 200 μmol/L) was added for incubation for 24 hours. A probe panel (xFe96 FluxPak, Agilent, 102353-100) was hydrated with a hydration solution (XF Calibrant Solution, Agilent, 100840-000) one day in advance, and then was placed in a non-CO2 incubator for incubation for at least 12 hours at 37° C. The experimental culture solution was prepared on the day of the experiment, 1 mL of 2.5 mM glucose (Glucose, Sigma, G7528), 1 mL of 2 mM glutamine (L-glutamine, Sigma, G8540), and 1 mL of 1 mM sodium pyruvate (Sodium pyruvate, Sigma, S8636) were added to 100 mL of base medium (Seahorse XF Basemedium, Agilent, 102353-100), and the pH of the culture solution was adjusted to 7.4±0.05 with 1N of NaOH. The culture solution of the cell culture plate was replaced with the experimental culture solution, 40 μL/well of the original medium was removed from the cell culture plate, then 160 μL/well of the experimental culture solution was added into the cell culture plate for dilution, and then 160 μL of the mixed culture solution was sucked out; the process was repeated for 2-3 times, finally the volume of the experimental culture solution in each well was 175 μL, and the cell culture plate was stood for 1 hour at 37° C.

| SMILES | mitochondrial basal respiration (100 μmol/L) | mitochondrial oxygen consumption rate (OCR) (100 μmol/L) | mitochondrial ATP production capability (100 μmol/L) | mitochondrial maximum respiratory value (100 μmol/L) | mitochondrial respiratory reserve (100 μmol/L) | mitochondrial basal respiration (200 μmol/L) | mitochondrial ATP production capability (200 μmol/L) | mitochondrial maximum respiratory value (200 μmol/L) | mitochondrial respiratory reserve (200 μmol/L) | mitochondrial oxygen consumption rate (OCR) (200 μmol/L) |
| --- | --- | --- | --- | --- | --- | --- | --- | --- | --- | --- |
| Nc1ncnc2c1ncn2[C@@H]1O[C@H](COP(=O)(O)O)[C@@H](O)[C@H]1O [AMP, 5′-adenosine monophosphate] | returned to normal level | returned to normal level | significantly increased | significantly increased | significantly increased | – | – | – | – | – |
| Nc1ccn([C@@H]2O[C@H](COP(=O)(O)O)[C@@H](O)[C@H]2O)c(=O)n1 [CMP, 5′-cytidine monophosphate] | – | – | – | – | – | increased and significantly lower than that in the nucleotide mixture group; also recorded: little effect | increased (P<0.05) but significantly lower than that in the nucleotide mixture group; also recorded: little effect | increased (P<0.05) but significantly lower than that in the nucleotide mixture group; also recorded: little effect | – | – |
| Nc1nc2c(ncn2[C@@H]2O[C@H](COP(=O)([O-])[O-])[C@@H](O)[C@H]2O)c(=O)[nH]1.[Na+].[Na+] [GMP, 5′-disodium guanylate] | – | – | – | – | – | – | increased (P<0.05) but significantly lower than that in the nucleotide mixture group; also recorded: little effect | increased (P<0.05) but significantly lower than that in the nucleotide mixture group; also recorded: little effect | increased (P<0.05) but significantly lower than that in the nucleotide mixture group; also recorded: little effect | – |
| O=c1ccn([C@@H]2O[C@H](COP(=O)([O-])[O-])[C@@H](O)[C@H]2O)c(=O)[nH]1.[Na+].[Na+] [UMP, 5′-disodium uridine] | – | – | – | – | – | significantly higher than that of the model control group; also recorded: returned to normal level | significantly increased | significantly increased | significantly increased | returned to normal level |
